Experiment [1] has as its target DNA polymerase of hepatitis B virus (HBV) (Hepatitis B virus genotype D subtype ayw, UniProt P03156). The experiment is described as follows: biochemical. The note with it: 3 hours incubation at 37° C., cpm vs water control. From the text: Since hepatitis B virus cannot be grown in cell cultures, a cell-free assay system of the hepatitis B virus DNA polymerase has been used to investigate the effect of 3′-deoxy-3′-fluorothymidine. 3′-Deoxy-3′-fluorothymidine in cells is transformed to 3′-deoxy-3′-fluorothymidine-5′-triphosphate.
The HBV associated DNA polymerase activity can be measured in vitro (Kaplan et al., J. Virol., 12, 995-1005, 1973). A slight modification of this method has been used to test the substance for inhibition of this DNA polymerase activity. (Nordenfelt E., Öberg, B., Helgstrand E. and Miller E. Acta path., Microbiol. Scand. Sect B, 88:169-175, 1980). With this assay the 3′-deoxy-3′-fluorothymidine-5′-triphosphate has been tested, instead of the prodrug 3′-deoxy-3′-fluorothymidine, to evaluate its potential against hepatitis B virus DNA polymerase.
3′-deoxy-3′-fluorothymidine-5′-triphosphate was added to the final concentrations of 0.01 μM, 0.05 μM, 0.1 μM, 0.5 μM and 1.0 μM in the reaction mixture. The inhibition is calculated after 3 hours incubation at 37° C. and based on cpm compared to control with added water.

Experiment [2] addresses T1, reverse transcriptase of HIV (HTLV-III/LAV) (Human immunodeficiency virus type 1 group M subtype B, UniProt P03366).
T1 construct: reverse transcriptase from HIV (HTLV-III/LAV)
The experiment is described as follows: Cell-free assay of HIV reverse transcriptase. It is filed as biochemical. As to the method:
A cell-free assay system has been used to investigate the inhibition of 3′-deoxy-3′-fluorothymidine on reverse transcriptase of HIV (HTLV-III/LAV). The assay was performed as described by Vrang et Öberg, Antimicrob. Agents Chemother. 29, 867-872 (1986). With this assay the 3′-deoxy-3′-fluoro-thymidine-5′-triphosphate has been tested, instead of the prodrug 3′-deoxy-3′-fluorothymidine to evaluate its potential against reverse transcriptase from HIV (HTLV-III/LAV).

The test system of experiment [3] is HIV (HTLV-III/LAV) in H9 cells. Put plainly: Expressed reverse transcriptase activity in HIV-infected H9 cell cultures. Format: cell-based.
Procedure: The cells were then pelleted and dispersed in 2.5 ml phosphate buffered saline (PBS) including 2 μg/ml Polybrene. After incubation for 30 min the cells were pelleted and infected with HIV. After an adsorption period of 1 hour the cells were pelleted and washed once with 2.5 ml PBS. […] Samples for reverse transcriptase activity tests were taken as indicated.
1.3 ml samples from the supernatant of each culture were centrifuged at 18 000 rpm in a 55-34 rotor for 1.5 hours and the virus pellet resuspended in 100 μl buffer containing 50 mM Tris-HCl, pH 7.5; 35 mM KCl; 4 mM DTT; 1 mM EDTA; 1.3% Triton X-100. 50 μl samples were taken to the reverse transcriptase activity tests and analyzed in a 100 μl reaction mixture containing 75 mM Tris-HCl, pH 8.0; 60 mM KCl; 6.2 mM MgCl2; 6 mM DTT; 0.5 mM EDTA; 0.65% Triton X-100, 100 μg/ml BSA; 25 μCi/ml ^3H-dTTP (spec activity 80 Ci/mmol); 2.5 μg/ml (dT)12-18; and 2.0 μg/ml (rA)n. Incubation was for 1 hour at 37° C. and the TCA-insoluble product precipitated onto Whatman GF/A filter papers, washed and dried, and counted in a liquid scintillation counter.
The amounts of reverse transcriptase molecules and their total activity expressed in HIV-infected cell cultures is correlated to the amount of HIV particles present. The addition of an effective antiviral agent which inhibits the production of new HIV particles, also decreases the amount of reverse transcriptase molecules and is expressed as a decreased total activity.

DNA polymerase of hepatitis B virus (HBV), sequence (P03156 whole entry): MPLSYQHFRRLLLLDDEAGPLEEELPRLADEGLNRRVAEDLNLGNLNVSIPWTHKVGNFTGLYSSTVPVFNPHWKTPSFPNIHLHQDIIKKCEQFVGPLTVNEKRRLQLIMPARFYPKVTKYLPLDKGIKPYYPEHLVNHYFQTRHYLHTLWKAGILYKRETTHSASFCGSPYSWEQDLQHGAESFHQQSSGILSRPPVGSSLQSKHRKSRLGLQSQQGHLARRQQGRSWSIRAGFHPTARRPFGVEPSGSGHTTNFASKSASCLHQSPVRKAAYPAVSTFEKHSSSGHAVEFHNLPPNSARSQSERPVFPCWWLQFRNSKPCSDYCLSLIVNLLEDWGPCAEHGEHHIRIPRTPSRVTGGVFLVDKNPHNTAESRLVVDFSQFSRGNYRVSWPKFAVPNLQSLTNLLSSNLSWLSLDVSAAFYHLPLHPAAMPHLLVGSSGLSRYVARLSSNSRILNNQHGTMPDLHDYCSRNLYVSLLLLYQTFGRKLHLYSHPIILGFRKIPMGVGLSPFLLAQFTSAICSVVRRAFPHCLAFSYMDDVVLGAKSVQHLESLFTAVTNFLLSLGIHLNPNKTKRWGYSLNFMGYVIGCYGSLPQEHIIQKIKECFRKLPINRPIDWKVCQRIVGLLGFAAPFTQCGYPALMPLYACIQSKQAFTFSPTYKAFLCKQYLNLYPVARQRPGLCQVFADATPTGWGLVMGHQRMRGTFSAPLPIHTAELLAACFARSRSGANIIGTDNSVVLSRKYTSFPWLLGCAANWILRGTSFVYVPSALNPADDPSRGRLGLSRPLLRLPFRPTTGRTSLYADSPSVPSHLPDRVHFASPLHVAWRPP

The term inhibition denotes how much of the control response was suppressed. Take `Cc1cn([C@H]2C[C@H](F)[C@@H](COP(=O)(O)OP(=O)(O)OP(=O)(O)O)O2)c(=O)[nH]c1=O` [3′-deoxy-3′-fluorothymidine-5′-triphosphate]: 0.01 µM produced 17% inhibition in experiment [1] (0.01 μM). Moreover, 0.05 µM produced 17% inhibition in experiment [1] (0.05 μM). In experiment [1] (0.1 μM), this molecule registered an inhibition at 0.1 µM of 39%. Besides, in experiment [1] (0.5 μM), at 0.5 µM the inhibition was 79%. The figures for the “% inhibition of HIV (HTLV-III/LAV) reverse transcriptase” value in experiment [2] (0.01 μM), in experiment [2] (0.05 μM) and in experiment [2] (0.1 μM) were 12%, 27% and 38%, respectively.
For `Cc1cn([C@H]2C[C@H](F)[C@@H](CO)O2)c(=O)[nH]c1=O` [3′-deoxy-3′-fluorothymidine], the Reverse transcriptase activity in experiment [3] (0.01 μM, 4 days post-infection, 0 μM control 0.9) worked out at 0.5 cpm × 10^−3; in experiment [3] (0.01 μM, 8 days post-infection, 0 μM control 19), 1.3 cpm × 10^−3; in experiment [3] (0.01 μM, 11 days post-infection, 0 μM control 17) it was 1.9 cpm × 10^−3; in experiment [3] (0.01 μM, 15 days post-infection, 0 μM control 11), 2.7 cpm × 10^−3; in experiment [3] (0.01 μM, 18 days post-infection, 0 μM control 27) it was 28 cpm × 10^−3; in experiment [3] (0.01 μM, 22 days post-infection, 0 μM control 46), 52 cpm × 10^−3. Further, the Reverse transcriptase activity is given as 21 cpm × 10^−3 in experiment [3] (0.01 μM, 29 days post-infection, 0 μM control 16); 0.3 cpm × 10^−3 in experiment [3] (0.05 μM, 4 days post-infection, 0 μM control 0.9); 0.3 cpm × 10^−3 in experiment [3] (0.05 μM, 8 days post-infection, 0 μM control 19); 0.4 cpm × 10^−3 in experiment [3] (0.05 μM, 11 days post-infection, 0 μM control 17); 0.6 cpm × 10^−3 in experiment [3] (0.05 μM, 15 days post-infection, 0 μM control 11); 0.5 cpm × 10^−3 in experiment [3] (0.05 μM, 18 days post-infection, 0 μM control 27). Further, the Reverse transcriptase activity in experiment [3] (0.05 μM, 22 days post-infection, 0 μM control 46) turned out to be 1.6 cpm × 10^−3; in experiment [3] (0.05 μM, 29 days post-infection, 0 μM control 16), 3.1 cpm × 10^−3; in experiment [3] (0.1 μM, 4 days post-infection, 0 μM control 0.9) it was 0.2 cpm × 10^−3; in experiment [3] (0.1 μM, 8 days post-infection, 0 μM control 19), 0.2 cpm × 10^−3; in experiment [3] (0.1 μM, 11 days post-infection, 0 μM control 17), 0.5 cpm × 10^−3; in experiment [3] (0.1 μM, 15 days post-infection, 0 μM control 11) it was 0.4 cpm × 10^−3. The Reverse transcriptase activity turned out to be 0.4 cpm × 10^−3 in experiment [3] (0.1 μM, 18 days post-infection, 0 μM control 27); 0.2 cpm × 10^−3 in experiment [3] (0.1 μM, 22 days post-infection, 0 μM control 46); 0.2 cpm × 10^−3 in experiment [3] (0.1 μM, 29 days post-infection, 0 μM control 16); 0.3 cpm × 10^−3 in experiment [3] (0.5 μM, 4 days post-infection, 0 μM control 0.9); 0.3 cpm × 10^−3 in experiment [3] (0.5 μM, 8 days post-infection, 0 μM control 19); 0.5 cpm × 10^−3 in experiment [3] (0.5 μM, 11 days post-infection, 0 μM control 17). Moreover, the Reverse transcriptase activity in experiment [3] (0.5 μM, 15 days post-infection, 0 μM control 11) is on record as 0.3 cpm × 10^−3; in experiment [3] (0.5 μM, 18 days post-infection, 0 μM control 27), 0.6 cpm × 10^−3; in experiment [3] (0.5 μM, 22 days post-infection, 0 μM control 46), 0.1 cpm × 10^−3; in experiment [3] (0.5 μM, 29 days post-infection, 0 μM control 16) it was 0.2 cpm × 10^−3; in experiment [3] (1.0 μM, 4 days post-infection, 0 μM control 0.9) it was 0.3 cpm × 10^−3; in experiment [3] (1.0 μM, 8 days post-infection, 0 μM control 19), 0.2 cpm × 10^−3. Further, the Reverse transcriptase activity in experiment [3] (1.0 μM, 11 days post-infection, 0 μM control 17) came to 0.5 cpm × 10^−3; in experiment [3] (1.0 μM, 15 days post-infection, 0 μM control 11), 0.4 cpm × 10^−3; in experiment [3] (1.0 μM, 18 days post-infection, 0 μM control 27), 0.5 cpm × 10^−3; in experiment [3] (1.0 μM, 22 days post-infection, 0 μM control 46) it was 0.1 cpm × 10^−3; in experiment [3] (1.0 μM, 29 days post-infection, 0 μM control 16), 0.2 cpm × 10^−3. Besides, the “effect on reverse transcriptase activity of HIV in infected H9 cells (in words)” value in experiment [3] (0.01 μM, up to 11 days) was “enzyme activity was not detected”; in experiment [3] (0.05 μM, up to 22 days), “no significant enzyme activity was detected”; in experiment [3] (0.1 μM and higher concentrations, during at least 29 days), “completely prevents the enzyme activity”.
